Data on two substances can be found in PMC11844072, “Novel 5,6-dichlorobenzimidazole derivatives as dual BRAFWT and BRAFV600E inhibitors: design, synthesis, anti-cancer activity and molecular dynamics simulations” (BMC Chemistry, 2025).

Common to all, as to experiment: NCI 60 single concentration growth inhibition
What all share (assay type): cell-based, human

One assay deals with CCRF-CEM. Conditions: Leukemia, 10 μM. Here is the method: (§1) The synthesized dichlorobenzimidazoles 10a–p were assayed for their influence on divers cancer cell lines according to the method presented in the Additional file A.
(§2) 5. Screening of cytotoxic activity against a panel of sixty human tumor cell lines
(§3) The selected compounds by NCI were evaluated for their anticancer activity in a two-stage process. First, these compounds were screened against the full NCI 60 cell lines panel at a single high dose of 10 µM. Then, the output from the single dose screen is reported as a mean graph. […]
(§4) at five different minimal concentrations.
(§5) Assay protocol. The human tumor cell lines of the cancer screening panel are grown in RPMI 1640 medium containing 5% fetal bovine serum and 2 mM L-glutamine. For a typical screening experiment, cells are inoculated into 96 well microtiter plates in 100 µL at plating densities ranging from 5000 to 40,000 cells/well depending on the doubling time of individual cell lines. After cell inoculation, the microtiter plates are incubated at 37 °C, 5% CO 2, 95% air and 100% relative humidity for 24 h prior to addition of the experimental drugs.
(§6) After 24 h, two plates of each cell line are fixed in situ with TCA, to represent a measurement of the cell population for each cell line at the time of drug addition (Tz). The experimental drugs are solubilized in dimethyl sulfoxide at 400-fold the desired final maximum test concentration and stored frozen prior to use. At the time of drug addition, an aliquot of frozen concentrate is thawed and diluted to twice the desired final maximum test concentration with complete medium containing 50 µg/mL gentamicin. Additional four, 10-fold or ½ log serial dilutions are made to provide a total of five drug concentrations plus control.
(§7) Aliquots of […] of these different drug dilutions are added to the appropriate microtiter wells already containing […] of medium, resulting in the required final drug concentrations.
(§8) Following drug addition, the plates are incubated for an additional 48 h at 37 °C, 5% CO 2, 95% air, and 100% relative humidity. For adherent cells, the assay is terminated by the addition of cold TCA.
(§9) Cells are fixed in situ by the gentle addition of 50 µL of cold 50% (w/v) TCA (final concentration, 10% TCA) and incubated for 60 min at 4 °C. The supernatant is discarded, and the plates are washed five times with tap water and air dried. Sulforhodamine B (SRB) solution ([…]) at 0.4% (w/v) in 1% acetic acid is added to each well, and plates are incubated for 10 min at room temperature. After staining, unbound dye is removed by washing five times with 1% acetic acid and the plates are air dried. Bound stain is subsequently solubilized with 10 mM trizma base, and the absorbance is read on an automated plate reader at a wavelength of 515 nm. For suspension cells, the methodology is […]
(§10) the same except that the assay is terminated by fixing settled cells at the bottom of the wells by gently adding 50 µl of 80% TCA (final concentration, 16% TCA). Using the seven absorbance measurements [time zero, (Tz), control growth, (C), and test growth in the presence of drug at the five concentration levels (Ti)], the percentage growth is calculated at each of the drug concentrations […]
(§11) Percentage growth inhibition is calculated as: [(Ti Tz)/(C–Tz)] x 100 for concentrations for which Ti>/=Tz and [(Ti-Tz)/Tz] x 100 for concentrations for which Ti < Tz.
(§12) Three dose response parameters are calculated for each experimental agent. Growth […]
(§13) concentration resulting in a 50% reduction in the net protein increase (as measured by SRB staining) in control cells during the drug incubation. The drug concentration resulting in total growth inhibition (TGI) is calculated from Ti = Tz. […]
(§14) reduction in the measured protein at the end of the drug treatment as compared to that at the beginning) indicating a net loss of cells following treatment is calculated from [(Ti–Tz)/Tz] x 100 =
(§15) _50. Values are calculated for each of these three parameters if the level of activity is reached; […]

Another assay concerns HOP-62. Conditions: HOP-62, Non-small cell lung cancer, 10 μM. As to the method:
as §1, §2, §3, §4, §5, §6, §7, §8, §9, §10, §11, §12, §13, §14, §15

In a further assay the test system is SK-MEL-5. Conditions: SK-MEL-5, Melanoma, 10 μM. Here is the method:
as §1, §2, §3, §4, §5, §6, §7, §8, §9, §10, §11, §12, §13, §14, §15

The subject of a further assay is SF-295. Conditions: SF-295, CNS cancer, 10 μM. As to the method:
as §1, §2, §3, §4, §5, §6, §7, §8, §9, §10, §11, §12, §13, §14, §15

In a further assay the test system is BT-549. Conditions: BT-549, Breast cancer, 10 μM. Here is the method: as §1, §2, §3, §4, §5, §6, §7, §8, §9, §10, §11, §12, §13, §14, §15
The next assay concerns MOLT-4. Conditions: MOLT-4, Leukemia, 10 μM. Here is the method: as §1, §2, §3, §4, §5, §6, §7, §8, §9, §10, §11, §12, §13, §14, §15
The subject of a further assay is HS 578T. Conditions: Breast cancer, 10 μM. Here is the method: as §1, §2, §3, §4, §5, §6, §7, §8, §9, §10, §11, §12, §13, §14, §15
The subject of a further assay is OVCAR-8. Conditions: OVCAR-8, Ovarian cancer, 10 μM. Here is the method: as §1, §2, §3, §4, §5, §6, §7, §8, §9, §10, §11, §12, §13, §14, §15
The subject of the next assay is SN12C. Conditions: Renal cancer, 10 μM. Here is the method: as §1, §2, §3, §4, §5, §6, §7, §8, §9, §10, §11, §12, §13, §14, §15
A further assay has as its system ACHN. Conditions: Renal cancer, 10 μM. Here is the method:
as §1, §2, §3, §4, §5, §6, §7, §8, §9, §10, §11, §12, §13, §14, §15

The test system of the next assay is SR. Conditions: Leukemia, 10 μM. Here is the method: as §1, §2, §3, §4, §5, §6, §7, §8, §9, §10, §11, §12, §13, §14, §15
The subject of a further assay is 786-0. Conditions: 786-0, Renal cancer, 10 μM. As to the method: as §1, §2, §3, §4, §5, §6, §7, §8, §9, §10, §11, §12, §13, §14, §15
For a further assay, the system named is HL-60(TB). Conditions: Leukemia, 10 μM. Here is the method:
as §1, §2, §3, §4, §5, §6, §7, §8, §9, §10, §11, §12, §13, §14, §15

The subject of a further assay is A498. Conditions: A498, Renal cancer, 10 μM. As to the method: as §1, §2, §3, §4, §5, §6, §7, §8, §9, §10, §11, §12, §13, §14, §15
For another assay, the system named is SF-268. Conditions: SF-268, CNS cancer, 10 μM. As to the method:
as §1, §2, §3, §4, §5, §6, §7, §8, §9, §10, §11, §12, §13, §14, §15

Another assay deals with M14. Conditions: M14, Melanoma, 10 μM. Here is the method: as §1, §2, §3, §4, §5, §6, §7, §8, §9, §10, §11, §12, §13, §14, §15
A further assay deals with SK-OV-3. Conditions: SK-OV-3, Ovarian cancer, 10 μM. As to the method: as §1, §2, §3, §4, §5, §6, §7, §8, §9, §10, §11, §12, §13, §14, §15
Another assay concerns MDA-MB-468. Conditions: MDA-MB-468, Breast cancer, 10 μM. Here is the method:
as §1, §2, §3, §4, §5, §6, §7, §8, §9, §10, §11, §12, §13, §14, §15

A further assay relates to SK-MEL-2. Conditions: SK-MEL-2, Melanoma, 10 μM. Here is the method: as §1, §2, §3, §4, §5, §6, §7, §8, §9, §10, §11, §12, §13, §14, §15
The next assay deals with KM12. Conditions: KM12, Colon cancer, 10 μM. Here is the method: as §1, §2, §3, §4, §5, §6, §7, §8, §9, §10, §11, §12, §13, §14, §15
A further assay relates to RPMI-8226. Conditions: RPMI-8226, Leukemia, 10 μM. As to the method:
as §1, §2, §3, §4, §5, §6, §7, §8, §9, §10, §11, §12, §13, §14, §15

Another assay concerns UACC-257. Conditions: UACC-257, Melanoma, 10 μM. As to the method:
as §1, §2, §3, §4, §5, §6, §7, §8, §9, §10, §11, §12, §13, §14, §15

With “2-(4-((2-(2-(5,6-Dichloro-2-(4-methoxyphenyl)-1H-benzo[d]imidazol-1-yl)acetyl)hydrazono)methyl) -2-methoxyphenoxy)acetic acid [Compound 10m]”, the GI% result in the assay with CCRF-CEM, in the assay on HOP-62, in the assay on SK-MEL-5, in the assay with SF-295, with BT-549 and in the assay with MOLT-4 was “– (GI% < 5%)” throughout. Further, the GI% result with HS 578T is reported as “– (GI% < 5%)”; in the assay with OVCAR-8, “– (GI% < 5%)”; in the assay with SN12C, 5.24%; in the assay with ACHN, “– (GI% < 5%)”; in the assay with SR, “– (GI% < 5%)”; in the assay on 786-0, “– (GI% < 5%)”. The GI% result with HL-60(TB), with A498, in the assay with SF-268, in the assay on M14, with SK-OV-3 and with MDA-MB-468 was “– (GI% < 5%)” throughout. In addition, the GI% entry in the assay with SK-MEL-2, with KM12, in the assay with RPMI-8226 and in the assay with UACC-257 was “– (GI% < 5%)” in each case.

In the case of “2-(5-((2-(2-(5,6-Dichloro-2-(4-methoxyphenyl)-1H-benzo[d]imidazol-1-yl)acetyl)hydrazono)methyl)-2-methoxyphenoxy)acetic acid [Compound 10n]”, the GI% result is “– (GI% < 5%)” in the assay with CCRF-CEM; “– (GI% < 5%)” in the assay with HOP-62; “– (GI% < 5%)” in the assay on SK-MEL-5; “– (GI% < 5%)” with SF-295; “– (GI% < 5%)” with BT-549; 10.12% in the assay on MOLT-4. Moreover, the GI% was 6.21% in the assay with HS 578T; “– (GI% < 5%)” in the assay with OVCAR-8; 5.05% in the assay on SN12C; “– (GI% < 5%)” in the assay with ACHN; 9.65% in the assay on SR; “– (GI% < 5%)” in the assay with 786-0. In addition, the GI% entry in the assay on HL-60(TB) is listed as “– (GI% < 5%)”; with A498 it was “– (GI% < 5%)”; in the assay with SF-268, “– (GI% < 5%)”; in the assay with M14 it was “– (GI% < 5%)”; in the assay with SK-OV-3, “– (GI% < 5%)”; in the assay on MDA-MB-468, 12.44%. For the same substance, the GI% result in the assay on SK-MEL-2, with KM12, with RPMI-8226 and in the assay with UACC-257 was “– (GI% < 5%)” in each case.
